Laboratory results: patent US9493448B2, “Cycloalkane derivatives” (Daiichi Sankyo Company, Limited, priority 2012, dated 2016)

Columns and labels:
[1] = tested on: mice and rats affected by thermal hyperalgesia; experiment: Thermal hyperalgesia assay; assay type: in vivo; details: oral administration, constant dose, against the vehicle treatment group; latency to escape behaviors after thermal stimulation of hind paw;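 further: measurement times set by the study director and not disclosed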
hNav 1.7 = hNav 1.7 (Homo sapiens (Human), UniProt Q15858); experiment: Electrophysiological evaluation, automated patch clamp IonWorks Quattro (Population Patch Clamp mode); assay type: cell-based; details: HEK293A cells stably expressing hNav 1.7/β1/β2; response to second depolarization pulse, pre-pulse potential set to V1/2; read-out: hNav1.7 IC50
Sequence of hNav 1.7 (Q15858 whole entry): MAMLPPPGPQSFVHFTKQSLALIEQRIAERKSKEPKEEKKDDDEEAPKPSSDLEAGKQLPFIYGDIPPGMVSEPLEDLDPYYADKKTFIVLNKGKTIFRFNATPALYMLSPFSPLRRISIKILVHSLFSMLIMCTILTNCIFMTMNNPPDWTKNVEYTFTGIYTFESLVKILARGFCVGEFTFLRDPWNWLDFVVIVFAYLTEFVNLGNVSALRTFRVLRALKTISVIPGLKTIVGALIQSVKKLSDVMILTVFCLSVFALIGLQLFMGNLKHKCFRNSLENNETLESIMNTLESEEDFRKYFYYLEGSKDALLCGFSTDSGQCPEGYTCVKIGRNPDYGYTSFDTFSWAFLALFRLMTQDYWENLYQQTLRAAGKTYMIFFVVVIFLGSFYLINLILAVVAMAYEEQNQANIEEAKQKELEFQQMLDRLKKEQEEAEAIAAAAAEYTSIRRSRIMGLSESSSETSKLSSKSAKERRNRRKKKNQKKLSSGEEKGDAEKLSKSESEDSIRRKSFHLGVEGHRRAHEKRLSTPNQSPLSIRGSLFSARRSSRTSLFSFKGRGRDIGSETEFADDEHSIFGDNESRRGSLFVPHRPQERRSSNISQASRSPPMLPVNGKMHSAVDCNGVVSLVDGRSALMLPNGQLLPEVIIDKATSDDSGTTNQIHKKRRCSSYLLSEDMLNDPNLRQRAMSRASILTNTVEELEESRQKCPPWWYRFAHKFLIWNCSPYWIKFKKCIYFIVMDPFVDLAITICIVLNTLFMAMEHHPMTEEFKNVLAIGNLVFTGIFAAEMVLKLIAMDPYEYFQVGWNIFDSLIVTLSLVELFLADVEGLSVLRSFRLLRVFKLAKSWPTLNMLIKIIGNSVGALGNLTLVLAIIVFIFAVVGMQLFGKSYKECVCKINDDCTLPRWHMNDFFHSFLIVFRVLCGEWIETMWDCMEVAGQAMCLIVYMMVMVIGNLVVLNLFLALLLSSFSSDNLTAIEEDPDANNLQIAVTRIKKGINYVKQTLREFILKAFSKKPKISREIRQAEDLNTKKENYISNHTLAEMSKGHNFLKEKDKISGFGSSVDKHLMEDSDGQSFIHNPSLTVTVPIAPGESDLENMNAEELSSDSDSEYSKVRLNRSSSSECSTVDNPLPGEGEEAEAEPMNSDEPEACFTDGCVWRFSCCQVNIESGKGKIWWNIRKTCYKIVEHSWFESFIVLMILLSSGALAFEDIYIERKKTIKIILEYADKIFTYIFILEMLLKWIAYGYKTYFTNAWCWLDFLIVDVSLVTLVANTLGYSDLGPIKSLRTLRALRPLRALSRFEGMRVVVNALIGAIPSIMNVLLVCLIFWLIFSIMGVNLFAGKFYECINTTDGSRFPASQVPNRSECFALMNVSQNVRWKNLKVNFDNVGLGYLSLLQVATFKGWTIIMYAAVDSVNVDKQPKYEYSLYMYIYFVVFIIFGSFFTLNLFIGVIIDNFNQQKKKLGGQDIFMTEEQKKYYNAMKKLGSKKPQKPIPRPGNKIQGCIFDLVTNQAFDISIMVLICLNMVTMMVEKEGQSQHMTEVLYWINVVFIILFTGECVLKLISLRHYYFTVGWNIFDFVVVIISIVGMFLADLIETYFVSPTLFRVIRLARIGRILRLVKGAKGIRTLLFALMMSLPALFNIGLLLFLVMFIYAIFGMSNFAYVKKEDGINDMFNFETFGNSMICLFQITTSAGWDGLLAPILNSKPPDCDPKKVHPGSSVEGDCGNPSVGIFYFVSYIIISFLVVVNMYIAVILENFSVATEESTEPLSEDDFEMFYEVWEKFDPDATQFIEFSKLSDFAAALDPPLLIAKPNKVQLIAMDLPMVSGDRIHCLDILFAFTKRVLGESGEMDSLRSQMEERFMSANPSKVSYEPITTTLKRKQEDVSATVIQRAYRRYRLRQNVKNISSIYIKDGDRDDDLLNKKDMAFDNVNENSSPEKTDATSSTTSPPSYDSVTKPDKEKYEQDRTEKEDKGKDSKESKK
Sequence of hNav 1.7 (Q07699 19-218 partner): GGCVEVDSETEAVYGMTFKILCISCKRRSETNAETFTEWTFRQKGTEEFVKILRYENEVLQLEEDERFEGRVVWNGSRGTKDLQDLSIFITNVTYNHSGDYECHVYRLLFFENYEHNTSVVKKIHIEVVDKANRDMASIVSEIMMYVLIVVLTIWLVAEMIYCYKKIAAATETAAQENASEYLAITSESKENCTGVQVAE
Sequence of hNav 1.7 (O60939 30-215 partner): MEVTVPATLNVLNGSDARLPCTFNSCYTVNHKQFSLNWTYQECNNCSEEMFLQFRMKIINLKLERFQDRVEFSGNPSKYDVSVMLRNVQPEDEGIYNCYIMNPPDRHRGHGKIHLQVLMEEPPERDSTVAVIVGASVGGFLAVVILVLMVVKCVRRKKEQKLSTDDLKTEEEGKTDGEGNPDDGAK

| Structure (SMILES) | IC50 (hNav 1.7) [nM] | Ratio of improving pain score (%) [1] |
| --- | --- | --- |
| Cc1c(O[C@H]2CCC[C@@H]2c2ccnn2C)ccc(S(=O)(=O)Nc2ccncn2)c1F (relative stereo) [Example 65, 2-Fluoro-3-methyl-4-{[(1S*,2R*)-2-(1-methyl-1H-pyrazol-5-yl)cyclopentyl]oxy}-N-(pyrimidin-4-yl)benzenesulfonamide] | 130 | B (“B” when the rate was 31 to 60%) |
| Cn1nccc1[C@H]1CCC(F)(F)C[C@@H]1Oc1ccc(S(=O)(=O)Nc2ccncn2)c(F)c1 (relative stereo) [Example 110, 4-{[(1S*,2R*)-5,5-Difluoro-2-(1-methyl-1H-pyrazol-5-yl)cyclohexyl]oxy}-2-fluoro-N-(pyrimidin-4-yl)benzenesulfonamide] | 300 | B (“B” when the rate was 31 to 60%) |
| O=S(=O)(Nc1ccncn1)c1cc(Cl)c(O[C@H]2CCCC[C@@H]2c2ccn[nH]2)cc1F [Example 158, 5-Chloro-2-fluoro-4-{[(1S,2R)-2-(1H-pyrazol-5-yl)cyclohexyl]oxy}-N-(pyrimidin-4-yl)benzenesulfonamide] | 28 | C (“C” when the rate was 0 to 30%) |
| Cn1nccc1[C@H]1CCC(F)(F)C[C@@H]1Oc1cc(F)c(S(=O)(=O)Nc2ccncn2)cc1Cl (relative stereo) [Example 141, 5-Chloro-4-{[(1S*,2R*)-5,5-difluoro-2-(1-methyl-1H-pyrazol-5-yl)cyclohexyl]oxy}-2-fluoro-N-(pyrimidin-4-yl)benzenesulfonamide] | 58 | A (“A” when the rate was 61 to 100%) |
| Cn1nccc1[C@H]1CCC[C@@H]1Oc1ccc(S(=O)(=O)Nc2ccncn2)c(F)c1 (relative stereo) [Example 29, 2-Fluoro-4-{[(1S*,2R*)-2-(1-methyl-1H-pyrazol-5-yl)cyclopentyl]oxy}-N-(pyrimidin-4-yl)benzenesulfonamide] | 1800 | A (“A” when the rate was 61 to 100%) |
| Nc1ncccc1[C@H]1CCCC[C@@H]1Oc1cc(F)c(S(=O)(=O)Nc2ccncn2)cc1F (relative stereo) [Example 69, 4-{[(1S*,2R*)-2-(2-Aminopyridin-3-yl)cyclohexyl]oxy}-2,5-difluoro-N-(pyrimidin-4-yl)benzenesulfonamide] | 87 | B (“B” when the rate was 31 to 60%) |
| Cc1cc(S(=O)(=O)Nc2ccncn2)c(F)cc1O[C@H]1CCCC[C@@H]1c1cn[nH]c1 (relative stereo) [Example 81, 2-Fluoro-5-methyl-4-{[(1S*,2R*)-2-(1H-pyrazol-4-yl)cyclohexyl]oxy}-N-(pyrimidin-4-yl)benzenesulfonamide] | 150 | C (“C” when the rate was 0 to 30%) |
| O=S(=O)(Nc1ccncn1)c1cc(Cl)c(O[C@H]2CCC[C@@H]2c2ccn[nH]2)cc1F [Example 150, 5-Chloro-2-fluoro-4-{[(1S,2R)-2-(1H-pyrazol-5-yl)cyclopentyl]oxy}-N-(pyrimidin-4-yl)benzenesulfonamide] | 21 | C (“C” when the rate was 0 to 30%) |
| CCn1nccc1[C@H]1CCCC[C@@H]1Oc1cc(F)c(S(=O)(=O)Nc2ccncn2)c(F)c1 (relative stereo) [Example 59, 4-{[(1S*,2R*)-2-(1-Ethyl-1H-pyrazol-5-yl)cyclohexyl]oxy}-2,6-difluoro-N-(pyrimidin-4-yl)benzenesulfonamide] | 31 | C (“C” when the rate was 0 to 30%) |
| Cc1cc(S(=O)(=O)Nc2ccncn2)c(F)cc1O[C@H]1CCC[C@@H]1c1cn[nH]c1 (relative stereo) [Example 101, 2-Fluoro-5-methyl-4-{[(1S*,2R*)-2-(1H-pyrazol-4-yl)cyclopentyl]oxy}-N-(pyrimidin-4-yl)benzenesulfonamide] | 180 | B (“B” when the rate was 31 to 60%) |
| Cn1nccc1[C@H]1CC(F)(F)CC[C@@H]1Oc1cc(F)c(S(=O)(=O)Nc2ccncn2)c(F)c1 (relative stereo) [Example 129, 4-{[(1S*,2R*)-4,4-Difluoro-2-(1-methyl-1H-pyrazol-5-yl)cyclohexyl]oxy}-2,6-difluoro-N-(pyrimidin-4-yl)benzenesulfonamide] | 100 | C (“C” when the rate was 0 to 30%) |
| CCn1nccc1[C@H]1CCC[C@@H]1Oc1ccc(S(=O)(=O)Nc2ccncn2)c(F)c1F (relative stereo) [Example 38, 4-{[(1S*,2R*)-2-(1-Ethyl-1H-pyrazol-5-yl)cyclopentyl]oxy}-2,3-difluoro-N-(pyrimidin-4-yl)benzenesulfonamide] | 240 | A (“A” when the rate was 61 to 100%) |
| Cn1nccc1[C@@H]1CCC[C@H]1Oc1ccc(S(=O)(=O)Nc2ccncn2)c(F)c1 [Example 128, 2-Fluoro-4-{[(1R,2S)-2-(1-methyl-1H-pyrazol-5-yl)cyclopentyl]oxy}-N-(pyrimidin-4-yl)benzenesulfonamide] | 92000 | B (“B” when the rate was 31 to 60%) |
| Cn1nccc1[C@H]1CCCC[C@@H]1Oc1ccc(S(=O)(=O)Nc2ccncn2)c(F)c1 (relative stereo) [Example 44, 2-Fluoro-4-{[(1S*,2R*)-2-(1-methyl-1H-pyrazol-5-yl)cyclohexyl]oxy}-N-(pyrimidin-4-yl)benzenesulfonamide] | 330 | C (“C” when the rate was 0 to 30%) |
| Cc1cc(S(=O)(=O)Nc2ccncn2)c(F)cc1O[C@H]1CCC[C@@H]1c1ccn[nH]1 [Example 148, 2-Fluoro-5-methyl-4-{[(1S,2R)-2-(1H-pyrazol-5-yl)cyclopentyl]oxy}-N-(pyrimidin-4-yl)benzenesulfonamide] | 18 | B (“B” when the rate was 31 to 60%) |

Now from value to compound, other results behind:

| IC50 (hNav 1.7) [nM] | Structure (SMILES) | Ratio of improving pain score (%) [1] |
| --- | --- | --- |
| 59 | Cn1nccc1[C@H]1CC(F)(F)CC[C@@H]1Oc1cc(F)c(S(=O)(=O)Nc2ccncn2)cc1Cl (relative stereo) [Example 131, 5-Chloro-4-{[(1S*,2R*)-4,4-difluoro-2-(1-methyl-1H-pyrazol-5-yl)cyclohexyl]oxy}-2-fluoro-N-(pyrimidin-4-yl)benzenesulfonamide] | C (“C” when the rate was 0 to 30%) |
| 39 | Cc1cc(S(=O)(=O)Nc2ccncn2)ccc1O[C@H]1CCCC[C@@H]1c1ccnn1C (relative stereo) [Example 54, 3-Methyl-4-{[(1S*,2R*)-2-(1-methyl-1H-pyrazol-5-yl)cyclohexyl]oxy}-N-(pyrimidin-4-yl)benzenesulfonamide] | C (“C” when the rate was 0 to 30%) |
| 120 | Cn1nccc1[C@H]1CCC(F)(F)C[C@@H]1Oc1cc(F)c(S(=O)(=O)Nc2ccncn2)cc1F (relative stereo) [Example 47, 4-{[(1S*,2R*)-5,5-Difluoro-2-(1-methyl-1H-pyrazol-5-yl)cyclohexyl]oxy}-2,5-difluoro-N-(pyrimidin-4-yl)benzenesulfonamide] | A (“A” when the rate was 61 to 100%) |
| 43 | O=S(=O)(Nc1ccncn1)c1c(F)cc(O[C@H]2CCCC[C@@H]2c2cn[nH]c2)cc1F [Example 171, 2,6-Difluoro-4-{[(1S,2R)-2-(1H-pyrazol-4-yl)cyclohexyl]oxy}-N-(pyrimidin-4-yl)benzenesulfonamide] | B (“B” when the rate was 31 to 60%) |
| 17 | Cc1c(O[C@H]2CCCC[C@@H]2c2ccnn2C)ccc(S(=O)(=O)Nc2ccncn2)c1F (relative stereo) [Example 66, 2-Fluoro-3-methyl-4-{[(1S*,2R*)-2-(1-methyl-1H-pyrazol-5-yl)cyclohexyl]oxy}-N-(pyrimidin-4-yl)benzenesulfonamide] | A (“A” when the rate was 61 to 100%) |
| 37 | Cn1nccc1[C@H]1CCCCC[C@@H]1Oc1cc(F)c(S(=O)(=O)Nc2ccncn2)cc1Cl (relative stereo) [Example 60, 5-Chloro-2-fluoro-4-{[(1S*,2R*)-2-(1-methyl-1H-pyrazol-5-yl)cycloheptyl]oxy}-N-(pyrimidin-4-yl)benzenesulfonamide] | C (“C” when the rate was 0 to 30%) |
| 57 | Cc1cc(S(=O)(=O)Nc2ccncn2)c(F)cc1O[C@H]1CC(F)(F)C[C@@H]1c1ccnn1C (relative stereo) [Example 133, 4-{[(1S*,2R*)-4,4-Difluoro-2-(1-methyl-1H-pyrazol-5-yl)cyclopentyl]oxy}-2-fluoro-5-methyl-N-(pyrimidin-4-yl)benzenesulfonamide] | A (“A” when the rate was 61 to 100%) |
| 35 | O=S(=O)(Nc1ccncn1)c1c(F)cc(O[C@H]2CCC[C@@H]2c2ccn[nH]2)cc1F (relative stereo) [Example 139, 2,6-Difluoro-4-{[(1S*,2R*)-2-(1H-pyrazol-5-yl)cyclopentyl]oxy}-N-(pyrimidin-4-yl)benzenesulfonamide] | C (“C” when the rate was 0 to 30%) |
| 220 | Cn1nccc1[C@H]1CCC(F)(F)C[C@@H]1Oc1ccc(S(=O)(=O)Nc2ccncn2)c(F)c1F (relative stereo) [Example 105, 4-{[(1S*,2R*)-5,5-Difluoro-2-(1-methyl-1H-pyrazol-5-yl)cyclohexyl]oxy}-2,3-difluoro-N-(pyrimidin-4-yl)benzenesulfonamide] | A (“A” when the rate was 61 to 100%) |
| 200 | Cc1cc(S(=O)(=O)Nc2nncs2)c(F)cc1O[C@H]1CC(F)(F)CC[C@@H]1c1ccnn1C (relative stereo) [Example 125, 4-{[(1S*,2R*)-5,5-Difluoro-2-(1-methyl-1H-pyrazol-5-yl)cyclohexyl]oxy}-2-fluoro-5-methyl-N-(1,3,4-thiadiazol-2-yl)benzenesulfonamide] | C (“C” when the rate was 0 to 30%) |
